Measured values published in ChEMBL document CHEMBL5357077, “Synthesis and Biological Evaluation of β-Lactam Derivatives Targeting Speckle-Type POZ Protein (SPOP)” (ACS Med Chem Lett, 2024).
Activity calls are given as the source filed them. No cut-off for these calls is given here.

Assays:
Speckle-type POZ protein [1] = target: T1, Speckle-type POZ protein (Homo sapiens, UniProt O43791); assay: (§1) Inhibition of GST-tagged human SPOP MATH domain (28 to 166 residues) expressed in Escherichia coli BL21 CodonPlus (DE3)-RIPL cells using FITC-LACDEVTSTTSSSTA peptide as substrate assessed as inhibition of substrate binding to SPOP preincubated with compound for 30 mins followed by substrate addition and measured immediately by fluorescence polarization assay
T1 sequence (O43791 whole entry, the tested form may be a part): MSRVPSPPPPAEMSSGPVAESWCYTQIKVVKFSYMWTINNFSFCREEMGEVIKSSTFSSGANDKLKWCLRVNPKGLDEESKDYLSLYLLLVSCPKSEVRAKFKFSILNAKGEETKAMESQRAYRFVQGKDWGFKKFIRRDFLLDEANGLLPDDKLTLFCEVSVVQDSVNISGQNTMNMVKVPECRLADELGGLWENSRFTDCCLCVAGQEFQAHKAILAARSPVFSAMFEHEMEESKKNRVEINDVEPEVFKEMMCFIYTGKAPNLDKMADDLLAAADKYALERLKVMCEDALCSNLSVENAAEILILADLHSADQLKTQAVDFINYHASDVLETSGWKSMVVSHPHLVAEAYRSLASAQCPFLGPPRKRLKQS

769-P = assay: Inhibition of colony formation in human 769-P cells at 0.4 to 50 uM incubated for 10 to 14 days by crystal violet staining based imaging analysis; assay type: functional, cell-based; details: dose 0.4-50 µM, time 10-14 day
Speckle-type POZ protein [2] = target: T1, Speckle-type POZ protein; assay: Binding affinity to GST-tagged human SPOP MATH domain (28 to 166 residues) expressed in Escherichia coli BL21 CodonPlus (DE3)-RIPL cells assessed as equilibrium dissociation constant by SPR analysis
786-0 [3] = assay: Inhibition of colony formation in human 786-0 cells at 0.4 to 50 uM incubated for 10 to 14 days by crystal violet staining based imaging analysis; assay type: functional, cell-based; details: dose 0.4-50 µM, time 10-14 day
HK-2 = assay: Cytotoxicity against HK-2 cells assessed as inhibition of cell proliferation measured after 72 hrs by Celltiter Glo luminescent cell viability assay; assay type: toxicity, cell-based; details: human, hk-2, 72 h
A498 = assay: Inhibition of colony formation in human A498 cells at 0.4 to 50 uM incubated for 10 to 14 days by crystal violet staining based imaging analysis; assay type: functional, cell-based; details: dose 0.4-50 µM, time 10-14 day
Speckle-type POZ protein [4] = target: T1, Speckle-type POZ protein; assay: Inhibition of GST-tagged human SPOP MATH domain (28 to 166 residues) expressed in Escherichia coli BL21 CodonPlus (DE3)-RIPL cells using Myc-DUSP7 as substrate assessed as disruption of SPOP binding to substrate at 1 to 40 uM incubated for 2 hrs by GST pull-down assay; details: dose 1-40 µM
OS-RC-2 = assay: Inhibition of colony formation in human OS-RC-2 cells at 0.4 to 50 uM incubated for 10 to 14 days by crystal violet staining based imaging analysis; assay type: functional, cell-based; details: dose 0.4-50 µM, time 10-14 day
Speckle-type POZ protein [5] = target: T1, Speckle-type POZ protein; assay: as §1, with “Potency index, ratio of 230D7 IC50 to test compound IC50 for inhibition” for “Inhibition”
Speckle-type POZ protein [6] = target: T1, Speckle-type POZ protein; assay: Inhibition of GST-tagged human SPOP MATH domain (28 to 166 residues) expressed in Escherichia coli BL21 CodonPlus (DE3)-RIPL cells using Myc-PTEN as substrate assessed as disruption of SPOP binding to substrate at 1 to 40 uM incubated for 2 hrs by GST pull-down assay; details: dose 1-40 µM
786-0 [7] = assay: Antiproliferative activity against human 786-0 cells assessed as inhibition of cell proliferation measured after 72 hrs by Celltiter Glo luminescent cell viability assay; assay type: functional, cell-based

Row | Compound | IC50 (Speckle-type POZ protein [1]) [µM] | other results
1 | C=CC1=C(C(=O)O)N2C(=O)[C@@H](NC(=O)c3ccc(COc4cccnc4)o3)[C@H]2SC1 | 74.4 | 
2 | C=CC1=C(C(=O)O)N2C(=O)[C@@H](NC(=O)c3ccc(COC)o3)[C@H]2SC1 | 26 | 
3 | C=CC1=C(C(=O)O)N2C(=O)[C@@H](NC(=O)c3ccc(C(=O)OC)o3)[C@H]2SC1 | > 100 | 
4 | O=C(O)C1=C(Cl)CS[C@@H]2[C@H](NC(=O)c3ccc(COc4ccc(Br)cc4Cl)o3)C(=O)N12 | 53.3 | 
5 | Cn1nnnc1SCC1=C(C(=O)O)N2C(=O)[C@@H](NC(=O)c3ccc(COc4ccc(Br)cc4Cl)o3)[C@H]2SC1 | 34.6 | 
6 | C=CC1=C(C(=O)O)N2C(=O)[C@@H](NC(=O)c3ccco3)[C@H]2SC1 | 81.2 | 
7 | C=CC1=C(C(=O)O)N2C(=O)[C@@H](NC(=O)c3ccc(Br)o3)[C@H]2SC1 | > 100 | 
8 | C=CC1=C(C(=O)O)N2C(=O)[C@@H](NC(=O)c3ccc(CCl)o3)[C@H]2SC1 | 0.58 | inhibition (769-P): Active; Kd (Speckle-type POZ protein [2]): 1.54 µM; inhibition (786-0 [3]): Active; Activity (HK-2): Non-Toxic; inhibition (A498): Active; inhibition (Speckle-type POZ protein [4]): Active; inhibition (OS-RC-2): Active; Ratio IC50 (Speckle-type POZ protein [5]): 22; inhibition (Speckle-type POZ protein [6]): Active; Activity (786-0 [7]): Active
9 | C=CC1=C(C(=O)O)N2C(=O)[C@@H](NC(=O)c3ccc(COc4ccccc4)o3)[C@H]2SC1 | 6.33 | Ratio IC50 (Speckle-type POZ protein [5]): 2
10 | O=C(O)C1=C(CO)CS[C@@H]2[C@H](NC(=O)c3ccc(COc4ccc(Br)cc4Cl)o3)C(=O)N12 | > 100 | 
11 | C=CC1=C(C(=O)O)N2C(=O)[C@@H](NC(=O)c3ccc(CO)o3)[C@H]2SC1 | > 100 | 
12 | C[C@H]1[C@H](NC(=O)c2ccc(COc3ccc(Br)cc3Cl)o2)C(=O)N1S(=O)(=O)O | > 100 | 
13 | C=CC1=C(C(=O)O)N2C(=O)[C@@H](NC(=O)c3ccc(COCC)o3)[C@H]2SC1 | > 100 | 
14 | C=CC1=C(C(=O)O)N2C(=O)[C@@H](NC(=O)c3ccc(COc4cccc(Cl)c4)o3)[C@H]2SC1 | > 100 | 
15 | C=CC1=C(C(=O)O)N2C(=O)[C@@H](NC(=O)c3ccc(CNc4ccc(Br)cc4Cl)o3)[C@H]2SC1 | > 100 | 
16 | CC1=C(C(=O)O)N2C(=O)[C@@H](NC(=O)c3ccc(COc4ccc(Br)cc4Cl)o3)[C@H]2SC1 | > 100 | 
17 | C=CC1=C(C(=O)O)N2C(=O)[C@@H](NC(=O)c3ccc(COc4ccc(F)cc4Cl)o3)[C@H]2SC1 | 98 | 
18 | C=CC1=C(C(=O)O)N2C(=O)[C@@H](NC(=O)c3ccc(COc4ccc(Br)cc4)o3)[C@H]2SC1 | > 100 | 
19 | C=CC1=C(C(=O)O)N2C(=O)[C@@H](NC(=O)c3ccc(COc4ccc(Br)cc4Cl)o3)[C@H]2SC1 | 5.35 | Ratio IC50 (Speckle-type POZ protein [5]): 3
20 | C=CC1=C(C(=O)O)N2C(=O)[C@@H](NC(=O)c3ccc(CBr)o3)[C@H]2SC1 | > 100 | 

Row | Compound | IC50 (Speckle-type POZ protein [1]) [µM] | other results
21 | C=CC1=C(C(=O)O)N2C(=O)[C@@H](NC(=O)c3ccc(COc4ccc(C#N)cc4)o3)[C@H]2SC1 | > 100 | 
22 | C=CC1=C(C(=O)O)N2C(=O)[C@@H](NC(=O)c3ccc(C(=O)Nc4ccc(Br)cc4Cl)o3)[C@H]2SC1 | 52.1 | 
23 | O=C(O)C1=CCS[C@@H]2[C@H](NC(=O)c3ccc(COc4ccc(Br)cc4Cl)o3)C(=O)N12 | 42.1 | 
24 | C=CC1=C(C(=O)O)N2C(=O)[C@@H](NC(=O)c3ccc(COc4ccc(Cl)cc4Br)o3)[C@H]2SC1 | > 100 | 
25 | C/C=C/C1=C(C(=O)O)N2C(=O)[C@@H](NC(=O)c3ccc(COc4ccc(Br)cc4Cl)o3)[C@H]2SC1 | 52.6 | 
26 | COCC1=C(C(=O)O)N2C(=O)[C@@H](NC(=O)c3ccc(COc4ccc(Br)cc4Cl)o3)[C@H]2SC1 | > 100 | 
27 | C=CC1=C(C(=O)O)N2C(=O)[C@@H](NC(=O)c3ccc(C)o3)[C@H]2SC1 | 20.7 | 
28 | C=CC1=C(C(=O)O)N2C(=O)[C@@H](NC(=O)c3ccc(Cl)o3)[C@H]2SC1 | > 100 | 
29 | C=CC1=C(C(=O)O)N2C(=O)[C@@H](NC(=O)c3ccc(COc4ccccc4Cl)o3)[C@H]2SC1 | > 100 | 
30 | Cc1nnc(SCC2=C(C(=O)O)N3C(=O)[C@@H](NC(=O)c4ccc(COc5ccc(Br)cc5Cl)o4)[C@H]3SC2)s1 | 32.3 | 
31 | C=CC1=C(C(=O)O)N2C(=O)[C@@H](NC(=O)c3ccc(COCc4ccc(Br)cc4Cl)o3)[C@H]2SC1 | 66 | 
32 | CC(=O)OCC1=C(C(=O)O)N2C(=O)[C@@H](NC(=O)c3ccc(COc4ccc(Br)cc4Cl)o3)[C@H]2SC1 | 12.5 | 
33 | C=CC1=C(C(=O)O)N2C(=O)[C@@H](NC(=O)c3ccc(COc4ccc(Br)cc4Cl)s3)[C@H]2SC1 | 15.1 | 
34 | C=CC1=C(C(=O)O)N2C(=O)[C@@H](NC(=O)c3cccc(COc4ccc(Br)cc4Cl)c3)[C@H]2SC1 | 30.1 | 
35 | CC1(C)S[C@@H]2[C@H](NC(=O)c3ccc(COc4ccc(Br)cc4Cl)o3)C(=O)N2[C@H]1C(=O)O | 20.5 | 
36 | C=CC1=C(C(=O)O)N2C(=O)[C@@H](NC(=O)c3ccc(COc4ccc(F)cc4)o3)[C@H]2SC1 | 7.03 | 
37 | C=CC1=C(C(=O)O)N2C(=O)[C@@H](NC(=O)c3ccc(COc4ccc(C#N)cc4Cl)o3)[C@H]2SC1 | 11.7 | 
38 | C=CC1=C(C(=O)O)N2C(=O)[C@@H](NC(=O)c3ccc(CF)o3)[C@H]2SC1 | 20.9 | 
39 | C=CC1=C(C(=O)O)N2C(=O)[C@@H](NC(=O)c3ccc(COc4c(C)cc(Br)cc4Cl)o3)[C@H]2SC1 | > 100 | 
